This is an account of results in US20190062277A1, “FARNESOID X RECEPTOR AGONISTS AND USES THEREOF” (Metacrine, Inc., priority 2015, published 2019).

In test [1] the target is T1, FXR (Homo sapiens, UniProt Q96RI1).
T1 sequence (Q96RI1 1-486): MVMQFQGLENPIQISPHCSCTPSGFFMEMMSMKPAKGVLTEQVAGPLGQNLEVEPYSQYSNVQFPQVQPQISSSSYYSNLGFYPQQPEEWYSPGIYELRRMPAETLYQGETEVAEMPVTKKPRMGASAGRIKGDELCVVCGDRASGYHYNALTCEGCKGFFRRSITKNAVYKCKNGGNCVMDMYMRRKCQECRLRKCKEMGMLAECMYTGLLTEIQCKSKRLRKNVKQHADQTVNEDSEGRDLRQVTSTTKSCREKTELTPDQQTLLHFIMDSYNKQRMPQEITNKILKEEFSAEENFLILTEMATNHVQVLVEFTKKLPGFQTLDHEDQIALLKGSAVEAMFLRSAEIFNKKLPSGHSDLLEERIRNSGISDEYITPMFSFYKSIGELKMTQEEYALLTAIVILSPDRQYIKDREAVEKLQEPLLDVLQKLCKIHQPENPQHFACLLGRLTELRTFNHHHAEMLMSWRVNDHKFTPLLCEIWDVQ
T1 sequence (P19793 1-462 partner): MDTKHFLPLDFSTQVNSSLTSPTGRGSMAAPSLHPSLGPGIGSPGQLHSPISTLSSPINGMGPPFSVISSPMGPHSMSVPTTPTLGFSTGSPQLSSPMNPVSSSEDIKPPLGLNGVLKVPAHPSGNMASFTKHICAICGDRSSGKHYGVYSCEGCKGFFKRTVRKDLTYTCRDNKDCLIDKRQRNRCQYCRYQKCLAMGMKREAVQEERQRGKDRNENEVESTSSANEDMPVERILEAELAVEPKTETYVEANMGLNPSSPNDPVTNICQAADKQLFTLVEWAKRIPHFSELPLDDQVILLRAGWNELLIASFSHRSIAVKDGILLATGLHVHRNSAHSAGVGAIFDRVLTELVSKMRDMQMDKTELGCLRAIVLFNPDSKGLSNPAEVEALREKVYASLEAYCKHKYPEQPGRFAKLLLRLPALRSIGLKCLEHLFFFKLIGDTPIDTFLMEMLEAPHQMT
As to the kind of experiment: In Vitro FXR Assay (TK), luciferase reporter in transfected CV-1 cells. In kind it is cell-based. On the set-up: expressed in transfected cells; host or cells: CV-1 cells. As to conditions: CV-1 cells transfected with hFXR, hRXR, TK-ECRE-luc; 18 hrs incubation; luminescence; maximum efficacy <25% of Fexaramine control also classified '+'. On the procedure: Example B-2: In Vitro FXR Assay (TK)
CV-1 cells were seeded at a density of 2,000,000 cells in a T175 flask with DMEM+10% charcoal double-stripped FBS and incubated at 37° C. in 5% CO2 for 18 h (0/N).
After 18 h of incubation, the medium in the T175 flask was changed with fresh DMEM+10% charcoal super-stripped serum. In a polypropylene tube, 2500 μL OptiMEM (Life Technologies, Cat #31985-062) was combined with expression plasmids for hFXR, hRXR, TK-ECRE-luc and pCMX-YFP. The tube was then briefly vortexed and incubated at room temperature for 5 minutes. Transfection reagent (X-tremeGENE HP from Roche, Cat #06 366 236 001) was added to the OptiMEM/plasmid mixture vortexed and incubated at room temperature for 20 minutes. Following incubation, the transfection reagent/DNA mixture complex was added to cells in the T175 flask and the cells were incubated at 37° C. in 5% CO2 for 18 h (O/N).
Compounds were serially diluted in DMSO and added to transfected CV-1 cells. The cells were then incubated for 18 hrs. The next day cells were lysed and examined for luminescence.
Background: In a reporter assay the amount or activity of a reporter protein is the signal.

In test [2] the target is T1, FXR. The test is described as follows: In Vitro FXR Assay (PGL3), luciferase reporter in transfected CV-1 cells. Type of test: cell-based. On the set-up: plasmids XPD90Gal pCMXhFXRfl, pCMXhRXRfl+PGL3-ECRE*6-luc+CMX-YFP; expressed in transfected cells; host or cells: CV-1 cells. As to conditions: CV-1 cells transfected with hFXR, hRXR, PGL3-ECRE*6-luc; 18 hrs incubation; luminescence. The procedure: Example B-1: In Vitro FXR Assay (PGL3)
CV-1 cells were seeded at a density of 2,000,000 cells in a T175 flask with DMEM+10% charcoal double-stripped FBS and incubated at 37° C. in a 5% CO2 for 18 h (0/N).
After 18 h of incubation, the medium in the T175 flask was changed with fresh DMEM+10% charcoal super-stripped serum.
To prepare the transfection reaction mixture, the transfection reagent (X-tremeGENE HP from Roche, Cat #06 366 236 001) was added in to a 1.5 mL microcentrifuge tube labelled “A” at a ratio of 1:3 (DNA in μg: transfection reagent in μL). OptiMEM medium (Life Technologies, Cat #31985-062) was added accordingly to provide a total volume of 1 mL. The transfection reaction mixture was then briefly vortexed and incubated at room temperature for 5 minutes.
In a separate 1.5 mL microcentrifuge tube labelled “B”, 100 μL OptiMEM and plasmids XPD90Gal pCMXhFXRfl, pCMXhRXRfl+PGL3-ECRE*6-luc+CMX-YFP in the ratio 2 μg: 2 μg:18 μg:3 μg were added. This microcentrifuge tube “B” was then briefly vortexed and incubated at room temperature for 5 minutes.
The total volume in tube labelled “A” was then transferred in to tube labelled “B.” The mixture was then briefly vortexed and the transfection:DNA complex was then incubated for about 15-20 minutes at room temperature.
Following incubation, the transfection reagent/DNA mixture complex was then added to cells in the T175 flask and the cells were incubated at […] (0/N) at 37° C. in 5% CO2.
In a 96 well plate, a half logarithmic serial dilution was prepared. OptiMEM was used as the diluent. Using any of one of the compounds described herein, a compound stock solution of 10 mM was prepared. An initial 1:100 dilution was made into the first well for a final concentration of 100 μM. The final concentrations in the 96-well plate was prepared by using a multichannel pipette to transfer 5 μL of the diluted compound to 384-well plate in quadruplicate.
Cells in T175 flask were trypsinized and cells were resuspending in 40 mL phenol red free DMEM+10% charcoal super-stripped FBS. Typically, one T175 flask was sufficient to seed two 384 well plates. CV-1 cells were seeded at 45 μL cell suspension/well using a multi-channel pipet or a 384 multidrop dispenser. The cells were then incubated for 18 hrs, overnight.
After removing the plates from the incubator, the medium was flicked out of plate and 384 well plate was turned upside down onto paper towel. The remaining medium was gently tapped out. 15 μL lysis buffer was then added to each well using a multichannel pipet or a 384 well multi-drop dispenser. After incubation for 10 minutes at room temperature on shaker, 30 μL Luciferase buffer was added to each well. Luminescence counts were taken immediately using the Perkin Elmer Envision.
The ability of the compounds disclosed herein to […] FXR activity was quantified and the respective EC50 value was determined. Fex=fexaramine.

The structures appear in SMILES notation.

In general, EC50 refers to the concentration that produces a half-maximal response. Read a low EC50 as an effect from little substance. `COC(=O)/C=C/c1cccc(N(Cc2ccc(-c3ccc(N(C)C)cc3)nc2)C(=O)C2CCCCC2)c1` [Compound 1, (E)-Methyl 3-(3-(N-((6-(4-(dimethylamino)phenyl)pyridin-3-yl)methyl)cyclohexanecarboxamido)phenyl)acrylate] gave an EC50 at FXR [1] of 1 to 10 µM. The “Cmpd/Fex (ratio of the EC50 for the test compound relative to the EC50 of the Fexaramine control)” value at FXR [2] is “+++ (‘+++’ means Cmpd/Fex <10)”.

For `COC(=O)/C=C/c1cccc(N(CC2CCN(c3ccc(N(C)C)cc3)CC2)C(=O)C2CCCCC2)c1` [Compound 2, (E)-Methyl 3-(3-(N-((1-(4-(dimethylamino)phenyl)piperidin-4-yl)methyl)cyclohexanecarboxamido)phenyl)acrylate], the EC50 on FXR [1] was no more than 1 µM. The “Cmpd/Fex (ratio of the EC50 for the test compound relative to the EC50 of the Fexaramine control)” value at FXR [2] is “+++ (‘+++’ means Cmpd/Fex <10)”.

`COC(=O)/C=C/c1cccc(N(C[C@@H]2CCN(c3ccc(N(C)C)cc3)C2)C(=O)C2CCCCC2)c1` [Compound 3, (R,E)-Methyl 3-(3-(N-((1-(4-(dimethylamino)phenyl)pyrrolidin-3-yl)methyl)cyclohexanecarboxamido)phenyl) acrylate]: the EC50 on FXR [1] was no less than 10 µM. The “Cmpd/Fex (ratio of the EC50 for the test compound relative to the EC50 of the Fexaramine control)” value on FXR [2] is listed as “+ (‘+’ means Cmpd/Fex >100)”.

Take `COC(=O)/C=C/c1cccc(N(C[C@H]2CCN(c3ccc(N(C)C)cc3)C2)C(=O)C2CCCCC2)c1` [Compound 4, (S,E)-Methyl 3-(3-(N-((1-(4-(dimethylamino)phenyl)pyrrolidin-3-yl)methyl)cyclohexanecarboxamido)phenyl) acrylate]: the EC50 on FXR [1] lay within 1 to 10 µM. Further, on FXR [2], the “Cmpd/Fex (ratio of the EC50 for the test compound relative to the EC50 of the Fexaramine control)” value is “++ (‘++’ means Cmpd/Fex >10 & <100)”.

As to `COC(=O)/C=C/c1cccc(N(CC2CN(c3ccc(N(C)C)cc3)C2)C(=O)C2CCCCC2)c1` [Compound 4.1, (E)-Methyl 3-(3-(N-((1-(4-(dimethylamino)phenyl)azetidin-3-yl)methyl)cyclohexanecarboxamido)phenyl) acrylate], the EC50 at FXR [1] is no less than 10 µM.

The molecule `COC(=O)/C=C/c1cccc(N(CC2CCN(c3ccc(C)cc3)CC2)C(=O)C2CCCCC2)c1` [Compound 5, (E)-Methyl 3-(3-(N-((1-(p-tolyl)piperidin-4-yl)methyl)cyclohexanecarboxamido)phenyl)acrylate] yielded an EC50 at FXR [1] of no more than 1 µM. The “Cmpd/Fex (ratio of the EC50 for the test compound relative to the EC50 of the Fexaramine control)” value at FXR [2] is on record as “+++ (‘+++’ means Cmpd/Fex <10)”.

`COc1ccc([C@H]2CC[C@H](CN(C(=O)C3CCCCC3)c3cccc(/C=C/C(=O)O)c3)CC2)cc1C` [Compound 6.1, trans-(E)-3-(3-(N-((4-(4-Methoxy-3-methylphenyl)cyclohexyl)methyl)cyclohexanecarboxamido)phenyl)acrylic acid] returned an EC50 on FXR [1] of 1 to 10 µM.

On FXR [1], `COC(=O)/C=C/c1cccc(N(C[C@H]2CC[C@H](c3ccc(OC)c(C)c3)CC2)C(=O)C2CCCCC2)c1` [Compound 8, trans-(E)-Methyl 3-(3-(N-((4-(4-methoxy-3-methylphenyl)cyclohexyl)methyl)cyclohexanecarboxamido)phenyl)acrylate] registered an EC50 of no more than 1 µM.

Turning to `COC(=O)/C=C/c1cccc(N(C[C@H]2CC[C@H](c3ccc(OC)c(C)c3)CC2)C(=O)CC(C)(C)C)c1` [Compound 9, trans-(E)-Methyl 3-(3-(N-((4-(4-methoxy-3-methylphenyl)cyclohexyl)methyl)-3,3-dimethylbutanamido)phenyl)acrylate], the EC50 on FXR [1] is no more than 1 µM.

Consider `COc1ccc([C@H]2CC[C@H](CN(C(=O)C3CCCCC3)c3cccc(/C=C/C(=O)OC(C)C)c3)CC2)cc1C` [Compound 10, trans-(E)-Isopropyl 3-(3-(N-((4-(4-methoxy-3-methylphenyl)cyclohexyl)methyl)cyclohexanecarboxamido)phenyl)acrylate], for which the EC50 at FXR [1] is no more than 1 µM.

With `COc1ccc([C@H]2CC[C@H](CN(C(=O)CC(C)(C)C)c3cccc(/C=C/C(=O)OC(C)C)c3)CC2)cc1C` [Compound 11, trans-(E)-Isopropyl 3-(3-(N-((4-(4-methoxy-3-methylphenyl)cyclohexyl)methyl)-3,3-dimethylbutanamido)phenyl)acrylate], the EC50 at FXR [1] was no more than 1 µM.

In the case of `COC(=O)/C=C/c1cccc(N(C[C@H]2CC[C@@H](c3ccc(OC)c(C)c3)CC2)C(=O)C2CCCCC2)c1` [Compound 12, cis-(E)-Methyl 3-(3-(N-((4-(4-methoxy-3-methylphenyl)cyclohexyl)methyl)cyclohexanecarboxamido)phenyl)acrylate], at FXR [1], the EC50 is no less than 10 µM.

On to `COc1ccc([C@H]2CC[C@H](CN(c3cccc(/C=C/C(=O)OC(C)C)c3)C(=O)[C@H]3CC[C@H](O)CC3)CC2)cc1C` [Compound 13, trans-(E)-Isopropyl 3-(3-(trans-4-hydroxy-N-((4-(4-methoxy-3-methylphenyl)cyclohexyl)methyl)cyclohexanecarboxamido)phenyl)acrylate], for which the EC50 on FXR [1] was no more than 1 µM.

`COC(=O)/C=C/c1cccc(N(C[C@H]2CC[C@H](c3ccc(OC)c(C)c3)CC2)C(=O)[C@H]2CC[C@H](O)CC2)c1` [Compound 14, trans-(E)-Methyl 3-(3-(trans-4-hydroxy-N-((4-(4-methoxy-3-methylphenyl)cyclohexyl)methyl)cyclohexanecarboxamido)phenyl)acrylate]: the EC50 on FXR [1] is no more than 1 µM.
